Entries after “also recorded” stand apart in the source; their conditions may differ. Where two headings read alike, the source gives them in different places. Blank lines part the entries; values can stand above or below the compound they belong to.
Columns and labels:
[1] = tested on: cap-dependent translation; assay: In vitro translation of dual luciferase reporter in rabbit reticulocyte lysate, cap-dependent Renilla luciferase; format: biochemical
Description: (§1) To determine the relative effects of the compound on cap dependent and independent translation, we utilized a bicistronic mRNA construct containing the gene for Renilla luciferase under the control of the cap and the message for firefly luciferase under the control of the cricket paralysis virus IRES (FIG. 2A). […] A dicistronic reporter construct containing the Renilla reniformis luciferase sequence after the 5′ UTR followed by the CrPV IRES and the firefly luciferase sequence was used to build a reporter construct plasmid. The reporter construct plasmid was linearized with BamHI and transcribed in vitro with an ARCA cap using the mMessage Machine T7 Ultra Kit (Ambion). In vitro translation reactions were carried out using Red Nova reticulocyte lysate (Novagen) with 2 mM magnesium acetate and […] potassium acetate, incubated at 30 degrees C. for 90 minutes. Translation of reporter genes was measured using the Dual-Glo luciferase assay (Promega) in a Wallac Victor^2 plate reader.
(§2) In addition to structurally characterizing the binding of our hit compounds, biological activities of the compounds was evaluated. […] To test this hypothesis in vitro, a translation assay in rabbit reticulocyte lysate was carried out. A dicistronic reporter construct containing a cap-dependent Renilla luciferase and a cricket paralysis virus IRES driven firefly luciferase was utilized to measure the relative affect of a compound on both translation mechanisms.
(§3) A functional cell free assay determined the relative effects of the compounds on cap- and IRES-dependent translations. This assay involved the in vitro translation of bicistronic mRNA reporter construct encoding for renilla luciferase in a cap-dependent and for firefly luciferase in a cap independent manner, the later driven by cricket paralysis virus IRES.

IRES driven translation = assay: In vitro translation of dual luciferase reporter in rabbit reticulocyte lysate, CrPV IRES driven firefly luciferase; format: biochemical
Description: as §1, §2, §3

HT29 colon cancer cells = assay: HT29 cell growth, Alamar Blue assay; format: cell-based; details: Homo sapiens, HT-29; for GI50: Alamar Blue assay
Experimental: (§4) Adherent human solid tumor cells were plated and maintained for 3 days in the presence of increasing concentration of the compounds, and cell proliferation was measured by alamar blue assay, where 10% of commercially available solution is added to the cell medium and measure fluorescence in 96-well plates at wavelength of 530 nm excitation and 590 nm emission. The data calculations were carried out as previously described.
Med. Chem. Lett. 14: 2547-50, 2004. […] .
(§5) Compounds were further tested for cell growth inhibition in a human lung cancer cell line (A549) and conlon cancer cell line (HT29). The Alamar Blue assay, which specifically measures the inhibition of cell proliferation, was used to assess the GI50's of the compounds.

eIF4E = eIF4E (Mus musculus, UniProt P63073); assay: FP assay competing with fluorogenic eIF4G-derived peptide (KRYDREFLLGF); format: binding
Experimental: The values indicate the average concentration needed to inhibit 50% of cell proliferation. […] A dual luciferase reporter mRNA was translated for 90 minutes at 30° C. in RedNova reticulocyte lysate (Novagen) in the presence of increasing concentrations of the compound. […] (purple) activity was measured and normalized against an untreated control reaction. The m^7GDP and emetine were used as the positive and negative controls, respectively.
Displacement of Nα-fluorescein tagged eIF4G-derived peptide by a competing ligand causes a large decrease in fluorescence polarization. The non-tagged version of the same eIF4G-derived peptide and DMSO were used as positive and negative control, respectively.

[2] = tested on: human lung cancer cell line (A549); assay: A549 cell growth inhibition, Alamar Blue assay; format: cell-based
Experimental: as §4, §5

A549 and HT29 cell lines = assay: Alamar Blue growth inhibition, statements covering both A549 and HT29; format: cell-based, human; details: Homo sapiens
Experimental: as §4, §5

Jurkat cells [3] = assay: Real-time PCR of c-myc and Bcl-xL mRNA relative to β-actin in Jurkat cells; details: 8 hrs
Experimental: (§7) For analysis of cellular protein and mRNA levels, Jurkat cells were grown for 8 hours in the presence of the compound. Extracts for Western blotting were prepared from half of the cells by multiple freeze-thaw cycles. β-actin, Bcl-xL, and c-myc were detected using polyclonal antibodies (Cell Signaling). For the remaining cells the PARIS kit (Ambion) was used to isolate total nuclear and total cytoplasmic RNA fractions. The integrity of the fractionation was confirmed by agarose gel electrophoresis (as prescribed by Ambion). Contaminating DNA was removed using the DNA-free kit (Ambion), and cDNA was prepared using MMLV reverse transcriptase (Promega). The relative abundance of the c-myc and Bcl-xL messages compared to β-actin was determined by real-time PCR with validated QuantiTec probes and the QuantiTec SYBR Green Kit (Qiagen), using a thermocycler from Applied Biosystems.

A549 lung cancer cells = assay: A549 proliferation, sulforhodamine B (SRB) assay; format: cell-based, human
Experimental: FIG. 28 is a graph showing the results of a cell proliferation assay. A549 cells, which are human lung cancer cells, are grown in plates for five days in medium containing 5% FCS and compound. The number of cells is quantified by staining with sulforhodamine B.

Jurkat cells [4] = assay: Jurkat cell viability by intracellular ATP (CellTiterGlo); format: cell-based, human; details: 24 hours
Experimental: (§6) Such results can result from pro-apoptotic and/or anti-proliferative activity in these cell lines. Cell viability was measured by treatment of Jurkat cells with compound for 24 hours and determination of intracellular ATP using the CellTiterGlo assay (Promega). […] After fixation and staining with PI cellular DNA content was determined by FACS analysis in a FACSCalibur machine (Beckton Dickinson). Nuclear morphology after 24 hour EG1-1 treatment was visualized by staining of cells with Hoechst 33342 dye and fluorescence microscopy.

Jurkat cells [5] = assay: Western blotting of Jurkat cell extracts for protein levels; details: 8 hours
Experimental: as §7

Jurkat cells [6] = assay: Apoptosis in Jurkat cells: sub-G1 DNA content by FACS, Hoechst 33342 nuclear morphology; format: cell-based, human
Experimental: as §6

A549 cells = assay: A549 cytotoxicity, CellTiter-Glo luminescence assay; details: A549, 16 hours, concentration range of anti-proliferative activity
Experimental: To determine if this was simply due to toxicity, cell viability after compound treatment was determined using a luminescence assay (FIG. 8B).

eIF4E/eIF4G interaction = target: T1, eIF4E/eIF4G interaction (Mus musculus, UniProt P63073); assay: Fluorescence polarization assay: binding of fluorescein-labeled eIF4G peptide to eIF4E; set-up: species or system murine; details: Table 1 of b280; triplicate, SD<±10%; read-out: IC50 (μM) (4E/4G FP)
T1 construct: made in house; host or cells: E. coli
Experimental: We adapted this assay to a microwell plate format and used it to screen the 16,000 compound Chembridge DiverSet E library. […] For screening and subsequent peptide binding assays measurements of fluorescence polarization were made using an LJL Analyst plate reader. For the screening assay a solution containing approximately 5 μM meIF4E, 60 nM labeled peptide, 0.05% bovine γ-globulin, and 2 mM DTT in a buffer composed of 50 mM sodium phosphate and 50 mM potassium chloride at pH 6.5 was used. […] The curve fitting for estimation of binding constants used equations derived by Roehrl et al.^22 Measurements of fluorescence polarization and anisotropy were made in black 384-well plates (Corning) using an Analyst plate reader (LJL Biosystems) Compounds were transferred to plates during the screening using a custom-built Seiko pin transfer robot at the Institute for Chemistry and Cell Biology (ICCB) at Harvard Medical School.
A fluorescence polarization (FP) assay was developed to measure binding of a peptide containing the conserved eIF4E-binding motif to eIF4E.
The assay was adapted to a microwell plate format and used to screen a number of libraries comprised of small molecule libraries for potential eIF4E/eIF4G interaction inhibitors.

Chain of eIF4E (P63073 whole entry): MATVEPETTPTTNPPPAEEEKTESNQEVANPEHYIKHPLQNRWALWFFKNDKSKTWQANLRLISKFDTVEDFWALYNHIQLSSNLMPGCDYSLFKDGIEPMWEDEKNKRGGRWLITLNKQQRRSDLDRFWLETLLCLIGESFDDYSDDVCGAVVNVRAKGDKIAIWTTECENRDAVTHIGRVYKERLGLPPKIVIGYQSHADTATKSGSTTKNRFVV
T1 sequence (P63073 whole entry): as above

Compound: CC[C@H]1CN2CCc3cc(OC)c(OC)cc3[C@@H]2C[C@@H]1C[C@H]1NCCc2cc(OC)c(OC)cc21 [emetine, reference compound]
cap-dependent translation (Renilla luciferase) [1]: inhibits translation of both messages equally well
IRES driven / cap-independent translation (firefly luciferase) (IRES driven translation): inhibits translation of both messages equally well

Compound: Cn1c[n+]([C@@H]2O[C@H](COP(=O)(O)OP(=O)([O-])O)[C@@H](O)[C@H]2O)c2nc(N)[nH]c(=O)c21 [m7GDP, reference compound]
cap-dependent translation (Renilla luciferase) [1]: specifically inhibits the cap-dependent message

Continued, in another order:

GI50 (HT29 colon cancer cells): 45 µM
binding affinity / potency in FP assay compared with hit compound 1 (eIF4E; relative to hit compound 1): equipotent
GI50 [2]: 24 µM
GI50 (A549 and HT29 cell lines; HT29 and A549, both, read-out: GI50 in both cell lines): > 24 µM
Compound: O=C(O)C(Cc1ccccc1[N+](=O)[O-])=NNc1nc(-c2ccc3c(c2)OCCCO3)cs1 [4e, 2-{[4-(3,4-Dihydro-2H-benzo[b][1,4]dioxepin-7-yl)-thiazol-2-yl]-hydrazono}-3-(2-nitro-phenyl)-propionic acid]

IC50 (HT29 colon cancer cells): 9 µM
GI50 (HT29 colon cancer cells): 9 µM
IC50 (A549 lung cancer cells; Homo sapiens, A549, FIG. 8A, read-out: IC50, anti-proliferative activity in A549 cells): ~6 µM
GI50 [2]: 5 µM
cap-dependent translation (Renilla luciferase) ([1]; listed as compound 1): inhibit dose-dependently
IRES driven / cap-independent translation (firefly luciferase) (IRES driven translation; listed as compound 1): enhance
Compound: O=C(O)/C(Cc1ccccc1[N+](=O)[O-])=N/Nc1nc(-c2ccc(Cl)c(Cl)c2)cs1 [EGI-1, 2-{[4-(3,4-Dichloro-phenyl)-thiazol-2-yl]-hydrazono}-3-(2-nitro-phenyl)-propionic acid]
transcriptional level, transport or stability of c-myc and Bcl-xL mRNA (Jurkat cells [3]): does not affect
proliferation of A549 cells (in words) (A549 lung cancer cells; SRB assay, five day growth period): inhibits proliferation
cell viability (cellular ATP level) (Jurkat cells [4]): induces loss of cell viability; also recorded: dose-dependent loss of cell viability
effect on strong mRNAs such as β-actin (protein level) (Jurkat cells [5]): little or no effect
production of proteins encoded by weak mRNAs (Bcl-xL, c-myc) (Jurkat cells [5]): inhibits the production
cap-dependent translation (Renilla luciferase) [1]: inhibits cap-dependent translation; also recorded: inhibited in a dose-dependent manner; also recorded: inhibited translation of the cap-dependent luciferase
apoptosis induction (Jurkat cells [6]): induces apoptosis; also recorded: pro-apoptotic activity
sub-G1 fraction on co-treatment with zVAD-FMK (Jurkat cells [6]; 60 μM with 100 μM zVAD-FMK, 24 hours): suppressed
nuclear morphology (Hoechst 33342) (Jurkat cells [6]; 60 μM, 24 hours): induces fragmented nuclear morphology
sub-G1 fraction (fragmented DNA) (Jurkat cells [6]; 60 μM, 24 hours): induces DNA fragmentation; also recorded: large increase in the sub-G1 fraction
IRES driven / cap-independent translation (firefly luciferase) (IRES driven translation): does not inhibit; also recorded: not inhibited and in fact significantly enhanced; also recorded: enhanced translation from the CrPV IRES
cytotoxicity (cell viability after compound treatment) (A549 cells): No significant cytotoxicity

potency in FP assay compared with 4f (eIF4E; relative to 4f): 2 fold
GI50 (A549 and HT29 cell lines; HT29 or A549, at least one, read-out: GI50 in at least one cell line): < 10 µM
IRES driven / cap-independent translation (firefly luciferase) (IRES driven translation): enhance
Compound: O=C(O)C(Cc1ccccc1[N+](=O)[O-])=NNc1nc(-c2ccc(C3CCCCC3)cc2)cs1 [4g, 2-{[4-(4-Cyclohexyl-phenyl)-thiazol-2-yl]-hydrazono}-3-(2-nitro-phenyl)-propionic acid]
cap-dependent translation (Renilla luciferase) [1]: Inhibition of cap-dependent translation; also recorded: inhibit dose-dependently; also recorded: more effective

IC50 (eIF4E/eIF4G interaction): > 600 µM
GI50 (A549 lung cancer cells; Table 1, sulforhodamine B assay, triplicate): 4 µM
cap-dependent translation (Renilla luciferase) [1]: Inhibition of cap-dependent translation
Compound: O=C(O)C(Cc1ccccc1)=NNc1nc(-c2ccccc2)cs1 [4b]
